Consider 5 compounds from ChEMBL document CHEMBL3817795, “Identification and optimisation of a series of N-(4-anilino-2-pyridyl)acetamide activin receptor-like kinase 1 (ALK1) inhibitors” (Medchemcomm, 2016).

In brackets after ≈: the same amount, converted by molar mass.

A short description of one series: Lipophilicity, log D of the compound at pH 7.4. In kind it is physicochemical. Particulars: buffer.
The term logD denotes the decadic logarithm of the distribution of all forms, ionised or not, between an organic phase and buffer at a given pH. A high value points to higher lipophilicity. In the case of `O=C(Nc1cc(Nc2ccccc2)ccn1)C1CC1`, the logD is 3.3. In turn, `O=C(Nc1cc(Nc2c(Cl)ccc3c2OCO3)ccn1)C1CC1` registered a logD of 3.3. Compound `O=C(Nc1cc(Nc2cccc3c2OCO3)ccn1)C1CC1` returned a log distribution coefficient (logD) of 3.7. `CC(=O)Nc1cc(Nc2c(Cl)ccc3c2OCO3)ccn1` came in with a pH-dependent lipophilicity (logD) of 2.7.

A short description of the next series: Solubility of the compound. It counts as physicochemical.
Details: not given
The solubility is the concentration that dissolves in the medium under given conditions. A high value points to a readily soluble substance. As for `O=C(Nc1cc(Nc2c(Cl)ccc3c2OCO3)ccn1)C1CC1`, the solubility came to 46 µM (≈ 15.3 µg/mL). In turn, `O=C(Nc1cc(Nc2ccccc2Cl)ccn1)C1CC1` displayed a solubility of 49 µM (≈ 14.1 µg/mL).
